Key:
Toxoplasma gondii = assay: MMV: A total of 100ul of inoculum was added to each well (parasite/cell ratio, ~10:1; final volume, 200 ul). Six hours after inoculation, nonadherent parasites were removed, and 100 ul of complete DMEM (1% penicillin-streptomycin, 3% FBS) supplemented with inhibitors at different concentrations (2-fold serial dilutions starting from 30 uM) was added to all except the negative-control wells. Positive controls, consisting of pyrimethamine (PYR) and sulfadiazine (SDZ) (20-mg/ml stocks in DMSO), were tested at a 2mg/ml final concentration. Each test was performed in triplicate.; format: functional, organism-based; conditions: 6 h
Entamoeba histolytica = assay: MMV: Primary screening was performed with each compound at a 30 uM final concentration and in triplicate in sealed 96-well polystyrene microtiter plates. Parasite inocula (100 ul) comprising 20000 parasites/ml were added to each well and grown at 37 degrees C in a humidified atmosphere of 5% CO2 for 72 h. Positive controls consisted of metronidazole at 1 mg/ml. The growth of E. histolytica trophozoites in each well was determined microscopically by measuring the diameters of the confluent cells in drug-containing wells relative to those in the nega- tive-control wells.; format: functional, organism-based

SMILES | IC50 (Toxoplasma gondii) | IC50 (Entamoeba histolytica)
COc1nc(Nc2ccc(C(C)C)cc2)nc(OC)n1 | > 30 µM | > 30 µM
CCN(CC)CCNc1ncnc2c1[nH]c1ccc(Br)cc12 | > 30 µM | > 30 µM
CCOc1cccc(C(=O)Nc2ccc(-c3nc4ccccc4[nH]3)cc2)c1 | > 30 µM | > 30 µM
Clc1cc(Br)ccc1-c1ccc(CNCC2CCNCC2)o1 | > 30 µM | > 30 µM
CCCC(c1nnnn1C1CCCCC1)N1CCN(C(=O)c2ccco2)CC1 (stereo not given) | > 30 µM | > 30 µM
COc1ccc(-c2nonc2NC(=O)c2cccc(Cl)c2)cc1OC | > 30 µM | > 30 µM
Cc1cc(NC(=O)c2ccc(-c3ccccc3)cc2)no1 | 21.1 µM | > 30 µM
CC(C)(C)C(=O)Nc1ccc(C(=O)Nc2cccc(-c3nc4ccccc4[nH]3)c2)cc1 | > 30 µM | > 30 µM
COc1ccc(-c2nonc2NC(=O)c2cccc(C)c2)cc1OC | > 30 µM | > 30 µM
COc1cccc(-c2nn(C)c3sc(C(=O)NCCN4CCN(c5ccccc5F)CC4)cc23)c1 | > 30 µM | > 30 µM
O=C(Nc1ccc(N2CCN(Cc3ccccc3)CC2)cc1)c1cccs1 | > 30 µM | > 30 µM
Cc1ccc(CN2CCC(C(=O)Nc3ccc(-c4cc5ccccc5[nH]4)cc3)CC2)o1 | > 30 µM | > 30 µM
O=C(Nc1ccc(N2CCCCC2)c(Cl)c1)c1ccc(Br)o1 | > 30 µM | > 30 µM
Cc1cc(C)c2nc(N3CCC(C(=O)NCCCN4CCC(N5CCCCC5)CC4)CC3)sc2c1 | > 30 µM | > 30 µM
CCOc1cc2c(cc1OCC)C(c1cc(C)c(O)c(C)c1)NCC2 (stereo not given) | 12.8 µM | > 30 µM
O=C1CC(O)(C(F)(F)C(F)(F)F)Oc2ccccc21 (stereo not given) | > 30 µM | > 30 µM
COc1cc(SC)ccc1C(=O)N1CCCC(C)C1 (stereo not given) | > 30 µM | > 30 µM
CC(C)(C)c1ccc(C(=O)Nc2nc3ccccc3s2)cc1 | > 30 µM | > 30 µM
CC(C)c1ccc(CNCC(O)c2ccccc2)cc1 (stereo not given) | 18.1 µM | > 30 µM
CC1CC(C)CN(C(=O)c2ccc(Cl)cc2Cl)C1 (stereo not given) | > 30 µM | > 30 µM
COc1ccccc1CNC(=O)C1c2ccccc2C(=O)N(CC(C)C)C1c1cccs1 (stereo not given) | > 30 µM | > 30 µM
OC(CNC1CCCC1)Cn1c2ccccc2c2ccccc21 (stereo not given) | > 30 µM | > 30 µM
COc1ccc(C2N(C)c3ccccc3N2C)cc1 | > 30 µM | > 30 µM

SMILES | IC50 (Toxoplasma gondii) | IC50 (Entamoeba histolytica)
Cc1ccc(NC(=O)Nc2cccc(Cl)c2)cc1F | > 30 µM | > 30 µM
CC(C)OCc1cc(CN2CCN(c3cccc(Cl)c3)CC2)c(O)c2ncccc12 | > 30 µM | > 30 µM
O=C(Nc1ccc(F)c(Cl)c1)Nc1ccc(Cl)c(Cl)c1 | 26.5 µM | > 30 µM
O=c1nc(C=Cc2ccc(Cl)cc2)oc2ccccc12 | > 30 µM | > 30 µM
O=C(NCc1ccco1)C1CCN(S(=O)(=O)c2ccc(Br)cc2)CC1 | > 30 µM | > 30 µM
Clc1ccc2[nH]c3c(NCCCN4CCOCC4)ncnc3c2c1 | > 30 µM | > 30 µM
COc1ccc(Nc2nc(NCc3ccccc3)c3ccccc3n2)cc1 | > 30 µM | > 30 µM
COc1cc2c(cc1OC)C1=NNC(=O)C1=NC(C)(C)C2 | > 30 µM | > 30 µM
Oc1c2c(nc3cc(-c4ccccc4)nn13)CCCC2 | 26.2 µM | > 30 µM
CCCc1c(C)nc2ccccc2c1O | > 30 µM | > 30 µM
CCCCc1c(C)nc2c(OC)cccc2c1O | > 30 µM | > 30 µM
CCOc1c(Cl)cc(CNC(C)C(O)c2ccccc2)cc1OC (stereo not given) | > 30 µM | > 30 µM
CCOC(=O)C1CCN(C(=O)CN2C(=O)c3ccccc3C2c2c[nH]c3ccccc23)CC1 (stereo not given) | > 30 µM | > 30 µM
CCOc1ccc(CCNC(=O)c2cccs2)cc1OCC | > 30 µM | > 30 µM
CCCN(CCC)CCCNC(=O)c1cc2c(-c3ccc(OC)c(OC)c3)nn(C)c2s1 | > 30 µM | > 30 µM
Cc1cc(N2CCN(C3CCCC3)CC2)n2c(nc3ccccc32)c1C#N | > 30 µM | > 30 µM
CN1c2ccccc2N(C)C1c1ccc2c(c1)OCO2 | > 30 µM | > 30 µM
CCCCOc1ccc(C(=O)Nc2cc(C)on2)cc1 | > 30 µM | > 30 µM
O=C(NCC1Cc2cccc(-c3ccncc3)c2O1)c1csc2c1CCCC2 (stereo not given) | > 30 µM | > 30 µM
CCc1ccc(Nc2cc(C)nc3nc(C)nn23)cc1 | > 30 µM | > 30 µM
CCN(CC)S(=O)(=O)c1ccc(-c2csc(Nc3ccc(C)c(C)c3)n2)cc1 | > 30 µM | > 30 µM
C=CCc1c(C)nc2ccccc2c1O | > 30 µM | > 30 µM
